Measured values taken from patent US7217688B2, “Methods and compositions for derepression of IAP-inhibited caspase” (The Burnham Institute, priority 2005, dated 2007).
Square brackets hold non-standard residues; d marks the D form. Ends that are not written are not given here. Peptide text beside a SMILES is read from it. * marks the point of attachment. 5TAMRA = CN(C)c1ccc2c(c1)Oc1cc(N(C)C)ccc1C21OC(=O)c2cc(C(=O)*)ccc21; Phe(4-Cl) = N[C@@H](Cc1ccc(Cl)cc1)C(=O)O; 2Nal = N[C@@H](Cc1ccc2ccccc2c1)C(=O)O; Fmoc = O=C(OCC1c2ccccc2-c2ccccc21)*; 2Thi = N[C@@H](Cc1cccs1)C(=O)O

Columns and labels:
[1] = molecular target: GST-BIR2 (XIAP fragment); assay: fluorescence polarization binding of rhodamine-SMAC
Description: Assays were run in 50 mM Tris @ pH 7.2/100 mM NaCl/0.1% BSA.

[2] = test system: Jurkat leukemia cells; assay: Jurkat cell death (Annexin V / propidium iodide flow cytometry); format: cell-based; details: for % nonviable cells: 20 hours; for cells killed: one day treatment
Description: The following assay was used to test the ability of individual compounds from the TPI 1396 and TPI 1391 libraries to induce apoptosis of cultured tumor cell lines. Each of the compounds listed in Table IX was individually added to Jurkat leukemia cells (6.25×10^5 cells/mL) in RPMI containing 2.5% FBS at various concentrations for 20 hours. After incubation, cells were washed and stained with FITC-conjugated Annexin V antibody and propidium iodide (Biovision; Mountain View, Calif.). Cells were incubated for 20 minutes at room temperature in the dark and fluorescence was measured by flow cytometry (FACScan, Immunocytometry system; Becton-Dickinson; San Jose, Calif.). Cells staining positive for Annexin V were deemed non-viable.

[3] = test system: normal bone marrow mononuclear cells; assay: normal bone marrow cell toxicity (Annexin V); format: cell-based; details: 5 μM, 20 hours
Description: After incubation, cells were washed, stained with FITC-conjugated Annexin V antibody and propidium iodide, and fluorescence measured by flow cytometry as described above.

[4] = molecular target: full length XIAP (Homo sapiens, UniProt P98170); assay: potency of IAP antagonists at restoring caspase-3 activity / SMAC competition assay (Table VIII); details: for EC50: amount of compound necessary to restore caspase-3 activity to 50% of Vmax; for Relative Potency: fold relative to SMAC AVPI tetrapeptide
[5] = molecular target: T1, XIAP-inhibited caspase-3 (Homo sapiens, UniProt P98170); assay: caspase derepression assay (XIAP-inhibited caspase-3, Ac-DEVD-AFC hydrolysis); format: biochemical
T1 construct: in the derepression assay using full length XIAP; made in house; host or cells: bacteria
Description: Caspase activity was assayed by release of 7-amino-4-trifluoromethyl-coumarin (AFC) from Ac-DEVD-AFC synthetic peptide using a Molecular Devices Spectromax 340 (see Zhou et al., J. Biol. Chem. 272:7797–7800 (1997)). […] The ratio of Vmax for hydrolysis of Ac-DEVD-AFC in the presence and absence of the candidate mixture was calculated and used to identify those that contain an agent that derepresses an IAP-inhibited caspase.
Screening of each mixture from the DCR390, TPI 1239 or TPI 1328 library, respectively, using the above described assay was carried out as follows. Each mixture was aliquoted in a 25 microliter volume and in duplicate to a well of a 96 well microtiter plate. […] Fluorescence of liberated AFC was immediately detected from each well for 30 minutes at 30 second intervals. The Vmax for hydrolysis of AC-DEVD-AFC from each well was measured using the softmax software package. Results of the screen for the DCR390 library are shown in Table I. Sets of mixtures having the same position fixed with different respective amino acids are arranged in 6 sections identified with the position number. […] The mixture in each section are arranged in descending order according to apparent velocity in the second column.
Briefly, recombinant proteins were produced in bacteria and purified as described, for example, in Deveraux et al., Nature 388:300–304(1997). […] Generation of fluorogenic AFC (7-amino-4-trifluoromethyl coumarin) product was measured with a spectrofluorometric plate reader in kinetic mode for 30 minutes at 37° C. using excitation and emission wavelengths of 405 nm and 510 nm, respectively. […] Control reactions lacked XIAP, and all assays were conducted in the linear range of substrate hydrolysis to avoid substrate depletion artifacts.

[6] = test system: NCI panel of 60 tumor cell lines; assay: NCI panel of 60 tumor cell lines, protein-based colorimetric assay; set-up: species or system human; details: 48 hours
Description: Selected polyphenylurea compounds were tested on the National Cancer Institute (NCI) panel of 60 tumor cell lines (see FIG. 28a and FIG. 29).

[7] = test system: PPC1 prostate cancer cells; assay: PPC1 tumor xenograft; format: in vivo, Balb/C nu-/nu- mice; details: 30 mg/kg i.p. for 2 or 3 days
Description: Similar data was obtained using TPI 1396-22 (see FIG. 33a and 33b). […] In FIG. 33b, the mice were sacrificed at day 19 and the tumors excised and weighed.

[8] = test system: ALVA31 prostate cancer cells; assay: ALVA31 cell viability (XTT dye-reduction and trypan blue exclusion); format: cell-based; details: peptides 40 μM, VP-16 100 μM, 24 hrs
Description: The in vivo effects of TPI 792-33 or TPI 792-35, either individually or in combination with the cytotoxic anticancer drug VP-16 (etoposide), on derepression of XIAP-inhibited caspase and viability of ALVA31 cells was determined as follows. ALVA31 prostate cancer cells were seeded onto 96 well plates (10^4 cells/well) in 100 μL RPMI containing 2.5% fetal bovine serum (FBS). […] After another 24 hrs incubation, cell viability was measured by the XTT dye-reduction assay (Roche, Molecular Biochemicals; Indianapolis, Ind.) and trypan blue dye exclusion assay.

[9] = test system: NCI panel of 60 tumor cell lines; details: same assay, comparison drug; cited from earlier work
[10] = test system: mouse embryo fibroblasts (MEFs); assay: mechanism-based toxicity in MEFs from XIAP -/- and wild type mice (MTT); format: cell-based; details: MEFs with or without SV40 large T antigen
Description: Cells were either tested directly at low passage (FIGS. 38A and C) or after transformation by infection with a retrovirus encoding SV40 large T antigen (FIGS. 38B and D). […] Cell viability was measured by MTT assay, expressing data as a percentage relative to control, untreated cells. Data shown in FIG. 38A–D represent mean±standard deviation of triplicate determinations.

[11] = test system: GST-XIAP BIR2; assay: binding of XIAP-BIR2 to biotinylated peptides on Neutravidin plates; details: biotinylated peptides adsorbed to Neutravidin-coated plates
Description: Bound GST polypeptides were detected with an anti-GST antibody.

Sequence of full length XIAP (P98170 whole entry): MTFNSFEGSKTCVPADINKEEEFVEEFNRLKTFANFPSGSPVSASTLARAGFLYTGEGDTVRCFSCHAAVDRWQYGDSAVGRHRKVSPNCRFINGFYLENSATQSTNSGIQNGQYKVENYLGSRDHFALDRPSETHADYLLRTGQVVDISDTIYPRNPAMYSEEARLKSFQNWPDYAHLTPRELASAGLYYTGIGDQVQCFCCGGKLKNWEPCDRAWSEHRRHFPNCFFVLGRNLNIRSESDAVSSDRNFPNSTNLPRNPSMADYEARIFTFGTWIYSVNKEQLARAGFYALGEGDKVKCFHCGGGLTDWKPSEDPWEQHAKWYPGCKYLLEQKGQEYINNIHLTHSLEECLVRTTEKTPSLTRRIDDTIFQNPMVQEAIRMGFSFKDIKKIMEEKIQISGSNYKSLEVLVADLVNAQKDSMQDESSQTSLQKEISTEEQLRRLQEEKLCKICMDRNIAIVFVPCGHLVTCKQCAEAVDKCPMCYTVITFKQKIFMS
T1 sequence (P98170 whole entry): as above
Sequence of GST-XIAP BIR2 (P98170 124-240 limits assumed): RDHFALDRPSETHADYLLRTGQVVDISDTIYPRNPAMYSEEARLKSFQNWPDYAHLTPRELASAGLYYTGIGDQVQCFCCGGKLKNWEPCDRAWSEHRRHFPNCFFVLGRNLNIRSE

Compound: CC[C@H](C)[C@H](NC(=O)[C@@H]1CCCN1C(=O)[C@@H](NC(=O)[C@H](C)N)C(C)C)C(=O)N[C@@H](C)C(=O)N[C@@H](CCC(N)=O)C(=O)N[C@@H](CCCCNC(=O)c1ccc2c(c1)C(=O)OC21c2ccc(N(C)C)cc2Oc2cc(N(C)C)ccc21)C(N)=O [Rhodamine-SMAC] (H-AVPIAQK(5TAMRA)-NH2; N-terminus and C-terminus assumed)
- Kd [1]: 20 µM

Compound: CC(C)CC1CN(C(CNCc2ccccc2)Cc2ccc3ccccc3c2)C(=O)C(=O)N1CCc1cccc(C(F)(F)F)c1 (stereo not shown) [TPI 1391-28]
- % nonviable cells ([2]; 1 μM): 19%
- % nonviable cells ([2]; 5 μM (first column headed 5)): 12%
- % nonviable cells ([2]; 5 μM (second column headed 5)): 28%
- cells killed ([2]; 5 μM): about 45%
- cells killed ([2]; 8 μM): ~80%
- % nonviable cells ([2]; 10 μM): 55%
- % nonviable cells ([2]; 25 μM): 87%
- % nonviable cells ([2]; 50 μM): 91%
- EC50 ([2]; one-day exposure, 0 to 20 μM, read-out: EC50 for killing Jurkat leukemia cells): ~6.5 µM
- toxicity to normal bone marrow cells [3]: little toxicity
- EC50 [4]: 25.1 µM
- Relative Potency [4]: 5

Compound: COc1ccc(CCN2CCCC2CN(C(=O)Nc2ccccc2)C(CNC(=O)Nc2ccccc2)Cc2ccc3ccccc3c2)cc1 (stereo not shown) [TPI 1396-22]
- Activity (relative caspase-3 activity, ratio of Vmax with compound to Vmax of caspase-3 and XIAP controls) ([5]; Table X, R2 = L-Proline): 3.3
- activity in the derepression assay using full length XIAP ([5]; active / inactive): active
- average LD50 for the 60 cell lines [6]: 11 ± 2.6 µM
- median LD50 for the 60 cell lines [6]: 22 µM
- tumor growth / tumor size [7]: significantly slowed the rate of growth
- EC50 [4]: 45.3 µM
- Relative Potency [4]: 2.8

Compound: COc1cc([C@@H]2c3cc4c(cc3[C@@H](O[C@@H]3O[C@@H]5CO[C@@H](C)O[C@H]5[C@H](O)[C@H]3O)[C@H]3COC(=O)[C@H]23)OCO4)cc(OC)c1O [VP-16, etoposide]
- effect on cell viability, agent alone [8]: essentially no effect
- mean LD50 in the NCI panel of 60 tumor cell lines [9]: 200 ± 2.5 µM

Compound: COc1cccc2c1C(=O)c1c(O)c3c(c(O)c1C2=O)C[C@@](O)(C(C)=O)C[C@@H]3O[C@H]1C[C@H](N)[C@H](O)[C@H](C)O1 [daunorubicin]
- selectivity for transformed versus non-transformed cells [10]: do not display selectivity for transformed cells

Compound: TPI 1554-1: biotinylated TPI 1453-1 ([2Thi][2Nal][Phe(4-Cl)]K(Fmoc); also: biotinylated (site not given here))
- binding to XIAP-BIR2 [11]: comparable to the binding of SMAC peptides

Compound: TPI 1554-2: biotinylated TPI 1453-6 ([2Thi][2Nal][dK](Fmoc)K(Fmoc); also: biotinylated (site not given here))
- binding to XIAP-BIR2 [11]: comparable to the binding of SMAC peptides
